This is an account of results in ChEMBL document CHEMBL1134442, “Novel selective PDE4 inhibitors. 2. Synthesis and structure-activity relationships of 4-aryl-substituted cis-tetra- and cis-hexahydrophthalazinones” (J Med Chem, 2001).

The target of experiment [1] is Phosphodiesterase 4 (Homo sapiens, UniProt P27815+Q08499+Q07343+Q08493). The experiment can be described thus: Inhibition of phosphodiesterase 4 (PDE4) in human neutrophils. The format is protein assay.
The target of experiment [2] is Phosphodiesterase 3 (Homo sapiens, UniProt Q14432+Q13370). Kind of experiment: Inhibitory activity of the against phosphodiesterase 3 (PDE3); No significant inhibitory activity at pIC50. Type of experiment: protein assay.

Broadly, the pIC50 is −log10 of the IC50, conventionally taken in molar units. A low value points to a large IC50. In the case of `COc1ccc(C2=NN(C3CCCCCC3)C(=O)C3CC=CCC23)cc1OCC1CC1` (stereo not given), the pIC50 in experiment [1] is given as 9; in experiment [2] it was less than 5.5. On the same counts, the results for `COc1ccc(C2=NN(C3CCCCCC3)C(=O)C3CC=CCC23)cc1OCCCCCc1ccccc1` (stereo not given) are 8.3 and less than 5.5. Taken in the same sequence, the figures for `COc1ccc(C2=NN(C3CCCCCC3)C(=O)C3CC=CCC23)cc1O` (stereo not given) were 7.4 and less than 5.5.

As to `COc1ccc(C2=NN(C3CCCCCC3)C(=O)C3CC=CCC23)cc1OCCCCCCOc1ccc(C(N)=O)cc1` (stereo not given), the pIC50 in experiment [1] was 9.5; in experiment [2] it was less than 5.5. Taken in the same sequence, the figures for `COc1ccc(C2=NN(Cc3ccccc3)C(=O)C3CCCCC23)cc1OC1CCCC1` (stereo not given) were 8 and less than 5.5.

Regarding `COc1ccc(C2=NN(Cc3ccccc3)C(=O)C3CCCCC23)cc1` (stereo not given), the pIC50 is 5.9 in experiment [1] and less than 5.5 in experiment [2]. Taken in the same sequence, the figures for `COc1ccc(C2=NN(C3CCCCCC3)C(=O)C3CC=CCC23)cc1OC` (stereo not given) were 9.1 and less than 5.5.

As to `COc1ccc(C2=NN(C3CCCCCC3)C(=O)C3CC=CCC23)cc1OCCCCOc1ccc(-n2ccnc2)cc1` (stereo not given), the negative logarithm of the IC50 (pIC50) is 9.7 in experiment [1] and less than 5.5 in experiment [2]. Consider `COc1ccc(C2=NN(C3CCCCCC3)C(=O)C3CC=CCC23)cc1OCCN(C)C` (stereo not given), for which the negative-log IC50 (pIC50) in experiment [1] is listed as 7.2; in experiment [2], less than 5.5. On the same counts, the results for `COc1ccc(C2=NN(Cc3ccccc3)C(=O)C3CCCCC23)c2c1OC1(CCCC1)C2` (stereo not given) are 8.6 and less than 5.5. Consider `COc1ccc(C2=NN(C3CCCCCC3)C(=O)C3CC=CCC23)cc1OCCO` (stereo not given), for which the negative-log IC50 (pIC50) in experiment [1] is 8.4; in experiment [2], less than 5.5. On the same counts, the results for `COc1ccc(C2=NN(C3CCCCCC3)C(=O)C3CC=CCC23)c2c1OC1(CCCC1)C2` (stereo not given) are 9.2 and less than 5.5. In the case of `COc1ccc(C2=NN(C3CCCCCC3)C(=O)C3CC=CCC23)cc1OCCCC(=O)O` (stereo not given), the negative-log IC50 (pIC50) in experiment [1] is recorded as 7.2; in experiment [2], less than 5.5. With `COc1ccc(C2=NN(C3CCCCCC3)C(=O)C3CC=CCC23)cc1OC1CCCC1` (stereo not given), the figures for the pIC50 in experiment [1] and in experiment [2] were 8.9 and less than 5.5, respectively.

As to `COc1ccc(C2=NN(C3CCCCCC3)C(=O)C3CC=CCC23)cc1OC(F)F` (stereo not given), the figures for the negative logarithm of the IC50 (pIC50) in experiment [1] and in experiment [2] were 8.8 and less than 5.5, respectively.

Turning to `COc1cccc(C2=NN(Cc3ccccc3)C(=O)C3CCCCC23)c1` (stereo not given), the values for the negative-log IC50 (pIC50) in experiment [1] and in experiment [2] were 5.6 and less than 5.5, respectively. `COc1ccc(C2=NN(Cc3ccccc3)C(=O)C3CCCCC23)cc1OC` (stereo not given): the pIC50 in experiment [1] is recorded as 8.1; in experiment [2] it was less than 5.5. Taken in the same sequence, the figures for `COc1ccc(C2=NN(C3CCCCCC3)C(=O)C3CC=CCC23)cc1OCCCCOc1ccc(C(=O)O)cc1` (stereo not given) were 9.5 and less than 5.5.

`COc1cc(C2=NN(Cc3ccccc3)C(=O)C3CCCCC23)ccc1OC1CCCC1` (stereo not given): the pIC50 in experiment [1] is on record as less than 5; in experiment [2], less than 5.5. `COc1ccc(C2=NN(C3CCCCCC3)C(=O)C3CC=CCC23)cc1OCCCCN(C)C` (stereo not given): the negative logarithm of the IC50 (pIC50) is recorded as 7.4 in experiment [1] and less than 5.5 in experiment [2]. Turning to `COc1ccc(C2=NN(C3CCCCCC3)C(=O)C3CC=CCC23)cc1OCCCCCCOc1ccc(C(=O)O)cc1` (stereo not given), the negative logarithm of the IC50 (pIC50) in experiment [1] is on record as 8.7; in experiment [2], less than 5.5.

As for `COc1ccc(C2=NN(C3CCCCCC3)C(=O)C3CC=CCC23)c2c1OC(C)(C)C2` (stereo not given), the pIC50 in experiment [1] is 9; in experiment [2], less than 5.5. Take `COc1ccc(C2=NN(C3CCCCCC3)C(=O)C3CC=CCC23)cc1OCCCCn1cnc2ncncc21` (stereo not given): the values for the pIC50 in experiment [1] and in experiment [2] were 7.6 and less than 5.5, respectively. On the same counts, the results for `COc1ccc(C2=NN(C3CCCCCC3)C(=O)C3CC=CCC23)cc1OCCCCC(=O)O` (stereo not given) are 7.8 and less than 5.5. On the same counts, the results for `COc1ccc(C2=NN(C3CCCCCC3)C(=O)C3CC=CCC23)cc1OCCCCOc1ccc(C#N)cc1` (stereo not given) are 8.6 and less than 5.5. For `O=C1C2CCCCC2C(c2ccccc2)=NN1Cc1ccccc1` (stereo not given), the results for the pIC50 in experiment [1] and in experiment [2] were less than 5 and less than 5.5, respectively. As to `COc1ccc(C2=NN(C3CCCCCC3)C(=O)C3CC=CCC23)cc1OCCCCCCOc1ccccc1` (stereo not given), the pIC50 in experiment [1] is given as 8; in experiment [2], less than 5.5. For `COc1ccc(C2=NN(C3CCCCCC3)C(=O)C3CC=CCC23)cc1OCCCCOc1ccc(-c2nn[nH]n2)cc1` (stereo not given), the pIC50 in experiment [1] is 9.2; in experiment [2] it was less than 5.5. Taken in the same sequence, the figures for `COc1ccc(C2=NN(C3CCCCCC3)C(=O)C3CC=CCC23)cc1OCCCCn1ccnc1` (stereo not given) were 8.1 and less than 5.5. With `O=C1C2CCCCC2C(c2ccc3c(c2)OCO3)=NN1Cc1ccccc1` (stereo not given), the pIC50 in experiment [1] is 5.8; in experiment [2], less than 5.5.

On to `COc1ccc(C2=NN(C3CCCCCC3)C(=O)C3CC=CCC23)cc1Cl` (stereo not given), for which the pIC50 in experiment [1] is reported as 8; in experiment [2], less than 5.5.

As to `O=C1C2CCCCC2C(c2cccc(Cl)c2)=NN1Cc1ccccc1` (stereo not given), the pIC50 in experiment [1] is given as less than 5; in experiment [2], less than 5.5. `COc1ccc(C2=NN(C3CCCCCC3)C(=O)C3CC=CCC23)cc1OCC(=O)O` (stereo not given): the pIC50 is 5.6 in experiment [1] and less than 5.5 in experiment [2]. As to `CCOc1ccc(C2=NN(Cc3ccccc3)C(=O)C3CCCCC23)cc1OCC` (stereo not given), the negative-log IC50 (pIC50) in experiment [1] is on record as 7.8; in experiment [2], less than 5.5. In turn, `COc1ccc([C@@H]2CNC(=O)C2)cc1OC1CCCC1` [(-)-ROLIPRAM] displayed a pIC50 in experiment [2] of less than 5.5. For `COc1ccc([C@]2(C#N)CC[C@@H](C(=O)O)CC2)cc1OC1CCCC1` [CILOMILAST], the pIC50 in experiment [2] is listed as less than 5.5.
